Experimental data: patent US12325696B2, “Indazole derivative, preparation method therefor, and pharmaceutical application thereof” (JIANGSU HENGRUI MEDICINE CO., LTD., priority 2019, dated 2025)
Read-outs that look alike come from different tables or passages of the source.

Key:
MCF7 D538G = assay: Inhibition of proliferation of MCF7 cell expressing ERα D538G mutant; type: cell-based; conditions: Homo sapiens, 144 hours; for Emax: read-out: Maximum inhibition
Outline: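 MCF7 cells stably expressing lentiviral ERα Y537S or D538G mutants, seeded 3,000 cells/well, then exposed in 2% FBS MEM to nine 4-fold dilutions from 100 nM for 144 h at 37° C. Viability read by CellTiter-Glo luminescence; IC50 fitted from concentration-response.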

[1] = Pharmacokinetics in BALB/C nude mice after intragastric administration; type: in vivo; conditions: female, mouse, plasma, po; for Vd/F: read-out: Apparent volume of distribution Vz/F; for AUC: read-out: Area under curve AUC; for CL/F: read-out: Clearance rate CL/F; for half-life: read-out: Half-life t1/2 (converted); for Cmax: read-out: Plasma concentration Cmax; for MRT: read-out: Residence time MRT
Experimental: BALB/C nude mice were used as test animals. The drug concentration in plasma at different time points was determined by LC/MS/MS method after intragastric administration of the compounds of the present disclosure to BALB/C nude mice. The pharmacokinetic behavior and characteristics of the compounds of the present disclosure was studied and evaluated in BALB/C nude mice.
Sixty-three BALB/C nude mice (female, equally divided into seven groups, nine mice per group) were purchased from Jiesijie Laboratory Animal Co., LTD. (Certificate No.: SCXK (Shanghai)2013-0006).
For the compound of Example 14, an appropriate amount of the compound was weighed, followed by the addition of 5% of DMSO, 5% of tween 80 and 90% of normal saline by volume to obtain a colorless, clear and transparent solution (0.1 mg/mL).
For the compounds of Examples 1, 15 and 39 to 42, an appropriate amount of the compound was weighed, followed by the addition of 9% of PEG400, 0.5% of tween 80 and 90.5% of 0.5% CMC-Na by volume to obtain a colorless, clear and transparent solution (1.5 mg/mL).
After an overnight fast, the test compounds were intragastrically administered at an administration volume of 0.2 ml/10 g respectively. The administration dose of the compound of Example 14 was 2 mg/kg, and the administration dose of the compounds of Examples 1, 15 and 39 to 42 was 30 mg/kg.
For the compounds of Examples 1 and 39, 0.1 ml of blood was taken at 0.25, 0.5, 1.0, 2.0, 4.0, 6.0, 8.0, 11.0 and 24.0 hours after the administration (from three animals per time point). The samples were stored in blood collection tubes treated with heparin (Sinopharm Chemical Reagent Co., Ltd.), and centrifuged for 10 minutes at 3500 rpm to separate the blood plasma. The blood plasma was stored at −20° C. The content of the test compound in the plasma of nude mouse after intragastrical administration of the test compound was determined. 25 μL of nude mouse plasma at each time point after the administration was taken, followed by the addition of 30 μL of the internal standard camptothecin solution (National Institutes for Food and Drug Control) (100 ng/mL) and 225 μL of acetonitrile. The resulting solution was vortex-mixed for 5 minutes, and centrifuged for 10 minutes (3700 to 4000 rpm). 0.1 to 0.5 μL of the supernatant was taken from the plasma samples for LC/MS/MS analysis.
For the compounds of Examples 14 and 15, 0.1 ml of blood was taken at 0.5, 1.0, 2.0, 4.0, 6.0, 8.0, 11.0 and 24.0 hours after the administration (from three animals per time point). The samples were stored in heparinized tubes, and centrifuged for 10 minutes at 3500 rpm to separate the blood plasma. The blood plasma was stored at −20° C. The content of the test compound in the plasma of nude mouse after intragastrical administration of the test compound was determined. 25 μL of nude mouse plasma at each time point after the administration was taken, followed by the addition of 30 μL of the internal standard camptothecin solution (100 ng/mL) and 200 μL of acetonitrile. The resulting solution was vortex-mixed for 5 minutes, and centrifuged for 10 minutes (3700 rpm). 0.25 to 1 μL of the supernatant was taken from the plasma samples for LC/MS/MS analysis.
For the compounds of Examples 40 to 42, 0.1 ml of blood was taken at 0.25, 0.5, 1.0, 2.0, 4.0, 6.0, 8.0, 11.0 and 24.0 hours after the administration (from three animals per time point). The samples were stored in tubes anticoagulated with EDTA-K2 (Shanghai Titan Scientific Co., Ltd.), and centrifuged for 1 minute at 10000 rpm and 4° C. The blood plasma was separated within one hour, and stored at −20° C. The process from blood collection to centrifugation was operated under an ice bath condition. The content of the test compound in the plasma of nude mouse after intragastrical administration of the test compound was determined. […]

Vd/F ([1]; 2 mg/kg) [L/kg]	AUC ([1]; 2 mg/kg) [ng·h/mL]	bioavailability ([1]; 2 mg/kg, read-out: Bioavailability F) [%]	CL/F ([1]; 2 mg/kg) [mL/min/kg]	half-life ([1]; 2 mg/kg) [h]	Cmax ([1]; 2 mg/kg) [ng/mL]	MRT ([1]; 2 mg/kg) [h]	SMILES	IC50 (MCF7 D538G) [pM]	Emax (MCF7 D538G) [%]	Vd/F ([1]; 30 mg/kg) [L/kg]	AUC ([1]; 30 mg/kg) [ng·h/mL]	CL/F ([1]; 30 mg/kg) [mL/min/kg]	half-life ([1]; 30 mg/kg) [h]	Cmax ([1]; 30 mg/kg) [ng/mL]	MRT ([1]; 30 mg/kg) [h]
							O=C(/C=C/CNC1(COc2ccc(/C(=C(/CC(F)(F)F)c3ccccc3)c3ccc4[nH]nc(F)c4c3)cn2)CC1)N1CCOCC1 [Example 1, (E)-1-Morpholino-4-((1-(((5-((Z)-4,4,4-trifluoro-1-(3-fluoro-1H-indazol-5-yl)-2-phenylbut-1-en-1-yl)pyridin-2-yl)oxy)methyl)cyclopropyl)amino)but-2-en-1-one]	2000	100	8.76	9850	50.8	1.99	4280	1.6
14.2	205	24.8	163	1.01	87	1.9	CN(C)C(=O)/C=C/CN1CCC[C@@H](Oc2ccc(/C(=C(/CC(F)(F)F)c3ccccc3)c3ccc4[nH]nc(F)c4c3)cn2)C1 [Example 14, (E)-N,N-Dimethyl-4-((R)-3-((5-((Z)-4,4,4-trifluoro-1-(3-fluoro-1H-indazol-5-yl)-2-phenylbut-1-en-1-yl)pyridin-2-yl)oxy)piperidin-1-yl)but-2-enamide]	3000	107						
							O=C(/C=C/CN1CCC[C@@H](Oc2ccc(/C(=C(/CC(F)(F)F)c3ccccc3)c3ccc4[nH]nc(F)c4c3)cn2)C1)N1CCCC1 [Example 15, (E)-1-(Pyrrolidin-1-yl)-4-((R)-3-((5-((Z)-4,4,4-trifluoro-1-(3-fluoro-1H-indazol-5-yl)-2-phenylbut-1-en-1-yl)pyridin-2-yl)oxy)piperidin-1-yl)but-2-en-1-one]	1000	105	5.87	6560	76	0.89	4570	1.41
							CN(C)C(=O)/C=C/CNC1(COc2ccc(/C(=C(/CC(F)(F)F)c3ccccc3)c3ccc4[nH]nc(F)c4c3)cn2)CC1 [Example 39, (E)-N,N-Dimethyl-4-((1-(((5-((Z)-4,4,4-trifluoro-1-(3-fluoro-1H-indazol-5-yl)-2-phenylbut-1-en-1-yl)pyridin-2-yl)oxy)methyl)cyclopropyl)amino)but-2-enamide]	600	105	2.47	16500	30.3	0.94	6600	1.57
							O=C(/C=C/CNC1(COc2ccc(/C(=C(/CC(F)(F)F)c3ccccc3)c3ccc4[nH]nc(F)c4c3)cn2)CC1)N1CC(O)C1 [Example 40, (E)-1-(3-Hydroxyazetidin-1-yl)-4-((1-(((5-((Z)-4,4,4-trifluoro-1-(3-fluoro-1H-indazol-5-yl)-2-phenylbut-1-en-1-yl)pyridin-2-yl)oxy)methyl)cyclopropyl)amino)but-2-en-1-one]	200	106	4.59	11900	42.1	1.26	3560	2.3
							O=C(/C=C/CNC1(COc2ccc(/C(=C(/CC(F)(F)F)c3ccccc3)c3ccc4[nH]nc(F)c4c3)cn2)CC1)N1CC[C@H](O)C1 [Example 41, (E)-1-((S)-3-Hydroxypyrrolidin-1-yl)-4-((1-(((5-((Z)-4,4,4-trifluoro-1-(3-fluoro-1H-indazol-5-yl)-2-phenylbut-1-en-1-yl)pyridin-2-yl)oxy)methyl)cyclopropyl)amino)but-2-en-1-one]	200	106	14.4	5020	99.6	1.67	2890	2.26
							O=C(/C=C/CNC1(COc2ccc(/C(=C(/CC(F)(F)F)c3ccccc3)c3ccc4[nH]nc(F)c4c3)cn2)CC1)N1CCO[C@@H](CO)C1 [Example 42, (E)-1-((R)-2-(Hydroxymethyl)morpholino)-4-((1-(((5-((Z)-4,4,4-trifluoro-1-(3-fluoro-1H-indazol-5-yl)-2-phenylbut-1-en-1-yl)pyridin-2-yl)oxy)methyl)cyclopropyl)amino)but-2-en-1-one]	100	105	11.5	4510	111	1.2	2570	1.56
